“Also recorded” adds a separate entry of the source. Like-named read-outs stand apart in the source and are kept apart here.
Key:
[1] = test system: metastatic colorectal adenocarcinoma (SW620); test: In vitro antiproliferative activity, SW620; assay type: cell-based, human; conditions: SW620 cells
Description: (§1) Antiproliferative activity of compounds 11a−11c, 12a−12c, 13a−13c, 14a−14c, 15a−15c, 16a, 23a−23c, 24a−24c, 25a−25c, 34a−34c and 35a−35c was evaluated in vitro on four human tumor cell lines (American Type Culture Collection, Manassas, VA, USA): metastatic colorectal adenocarcinoma (SW620), ductal pancreatic adenocarcinoma (CFPAC-1), hepatocellular carcinoma (HepG2) and cervical carcinoma (HeLa) as well as normal skin fibroblasts (HFF).

[2] = test system: ductal pancreatic adenocarcinoma (CFPAC-1); test: In vitro antiproliferative activity, CFPAC-1; assay type: cell-based, human; conditions: CFPAC-1 cells
Description: as §1

[3] = test system: hepatocellular carcinoma (HepG2); test: In vitro antiproliferative activity, HepG2; assay type: cell-based, human; conditions: HepG2 cells
Description: as §1

[4] = test system: cervical carcinoma (HeLa); test: In vitro antiproliferative activity, HeLa; assay type: cell-based, human; conditions: HeLa cells
Description: as §1

[5] = test system: normal skin fibroblasts (HFF); test: Cytotoxicity on non-tumor cells, HFF; assay type: cell-based, human
Description: as §1

[6] = pH 7.4
Description: (§5) The distribution coefficient Chrom logD, a parameter used to assess the lipophilicity of compounds [36, 37], was determined for novel purine and purine isosteres with a ferrocene motif as shown in Table 1.
(§6) The distribution coefficient, Chrom logD, was determined from compounds’ gradient retention times by employing a high-performance liquid chromatography method with fast acetonitrile gradient. Compounds were prepared for analysis in final concentration of 1.25 mM by dilution of 10 mM stock solutions in DMSO with acetonitrile. Aqueous mobile phase was 50 mM ammonium acetate adjusted with ammonia solution to pH 7.4 and the organic mobile phase was acetonitrile. A reversed phase HPLC column Luna C18, 50 × 3 mm i.d., 5 µm particle size (Phenomenex, Torrance, CA, USA) was used for analysis. Sample injection volume was 2 µL and the flow rate was 1 mL min^−1. All compounds were analysed in duplicates. Fast-gradient elution was as follows: from 0 to 100% of acetonitrile (0−3 min), 100% of acetonitrile (3.0−3.5 min), from 100 to 0% of acetonitrile (3.5−3.7 min), and re-equilibration with 100% of aqueous mobile phase (3.7−5.0 min). All measurements were performed on an HPLC-DAD instrument Agilent 1100 Series (Agilent Technologies, Santa Clara, CA, USA) coupled with a mass spectrometer Micromass Quattro API (Waters, MA, USA). MassLynx software, version 4.1 (Waters, Manchester, UK) was used for data acquisition and processing. Before compound analysis, a calibration step was performed. A set of standard compounds with literature CHI values [36] were plotted against gradient retention times to obtain a calibration equation, which was used to determine CHI value from the compounds’ retention times.

MDCKII-hMDR1 cells = test: Permeability and P-gp substrate assessment in MDCKII-hMDR1 cell monolayer; assay type: in vitro ADME, canine; conditions: for Permeability classification: MDCKII-hMDR1, in words; for Efflux Ratio (BA/AB) / Papp (AB) / Papp (BA): without P-gp inhibitor; for Papp (AB) / Papp (BA): 10 µM, 60 min
Description: The Madin-Darby canine kidney cells with overexpressed human multidrug-resistant gene (MDCKII-hMDR1) have been frequently used to study bidirectional transport of compounds and assess P-gp substrate potential. Apparent permeability (Papp) values were determined from the amount permeated through the MDCKII-hMDR1 cell monolayer in both the apical-basolateral (AB) and basolateral-apical (BA) direction.
MDCKII-hMDR1 cell monolayer was used for determination of permeability and P-gp substrate assessment. MDCKII-hMDR1 cells (Solvo Biotechnology, Szeged, Hungary) were grown in the controlled atmosphere (37 °C, 95% humidity, 5% CO2) in MDCK cell culture medium containing Dulbecco’s Modified Eagle Medium (DMEM) + 10% Fetal bovine serum (FBS, inactivated) + 1% glutamax-100 + 1% antibiotic/antimycotic + 1% of Non-essential amino acids Minimum Essential Medium (MEM NEAA). Cultures were split every 3–4 days using 0.05% Trypsin-EDTA. Cells were seeded 4 days prior to the experiment in concentration of 0.3 × 10^6 cells mL^−1 and cultured in CO2 incubator. On the experiment day, cell monolayers were washed with Dulbecco’s phosphate buffer saline (D-PBS) and equilibrated for 45 min in CO2 incubator in D-PBS containing 1% DMSO (1% v/v) with or without Elacridar (2 µM). Compounds, in final concentration of 10 µM, were prepared in transport medium containing Lucifer yellow (100 µM), with DMSO contentment of 1% (v/v) and in the presence and without Elacridar. Lucifer yellow calibration curve was prepared by serial dilution (12 points, with 100 µM as the highest point). Monolayer integrity was examined by fluorescent measurement on a Microplate reader Infinite F500 (Tecan) by using an excitation of 485 nm and emission of 530 nm. Experiment was started by applying the solutions containing test compounds to apical and basolateral side of the cell monolayer. Starting compound concentration (C0) was sampled at the start of the experiment and apical and basolateral compartments were sampled after incubation at 37 °C with gentle shaking for 60 min. Compound were tested in duplicate. Amprenavir was used as a control with low permeability and as a P-gp substrate without inhibitor presence, turning into a highly permeable compound with the inhibitor present.
Samples were analyzed on an ABSciex API 4000 Triple Quadrupole Mass Spectrometer (Sciex, Division of MDS Inc., Toronto, ON, Canada) coupled to a UHPLC Nexera X2 (Shimadzu, Kyoto, Japan). Samples (1 µL) were injected onto a reversed phase HPLC column Luna Omega Polar C18, 30 × 2.1 mm i.d., 1.6 µm particle size (Phenomenex) which was kept at 50 °C. Aqueous solution was 0.1% formic acid in deionized water and the organic mobile phase was […]. Flow rate was kept at 0.7 mL min^−1 for all measurements. Fast-gradient elution was as follows: 2% of organic mobile phase through 0.15 min, from 2 to 95% of organic mobile phase (0.15−0.7 min), 95% of organic mobile phase (0.7−1.1 min), from 95 to 2% of organic mobile phase (1.1−1.11 min), and re-equilibration with 98% of aqueous mobile phase (1.11−1.5 min). Positive ion mode with turbo spray, an ion source temperature of 550 °C and a dwell time of 75 ms were utilized for mass spectrometric detection. Quantitation was performed using multiple reaction monitoring (MRM) at the specific transition corresponding to the compound of interest. Warfarin was used as an internal standard. The ratios between compound and internal standard peak areas were used instead of real compound concentration. Apparent permeability coefficient, Papp (nm s^−1) values were calculated by using the following Equation (1):Papp [nm s^−1] = (dQ/dT) × (1/C0) × (1/A)(1) where: dQ/dT = permeability rate; C0 = initial concentration in donor compartment; A = surface area of the cell monolayer (0.7 cm^2). […]

[7] = Metabolic stability in mouse liver microsomes; assay type: in vitro ADME; conditions: for t1/2: mouse liver microsomes, 1 µM; for In Vivo CLh / In Vivo CLh (% LBF): mouse; for In Vivo CLh: predicted in vivo hepatic clearance; for In Vivo CLh (% LBF): predicted, % of liver blood flow
Description: (§2) Metabolic stability of compounds was assessed in human and mouse liver microsomes (Corning, Tewksbury, MA, USA). Compounds, in final concentration of 1 µM, were incubated in phosphate buffer (50 mM, pH 7.4) for 60 min at 37 °C together with liver microsomes and NADPH generating system (nicotinamide adenine dinucleotide phosphate (NADP, 0.5 mM), glucose-6-phosphate (G6P, 5 mM), glucose-6-phosphate dehydrogenase (1.5 U mL^−1) and magnesium chloride (0.5 mM)). Also, compounds were incubated without the presence of NADPH cofactor, as a buffer stability control. Metabolic activity of liver microsomes was verified by including testosterone and propranolol as positive controls, as well as caffeine as a negative control. Sampling was performed at six time points (0, 10, 20, 30, 45 and 60 min), followed by reaction termination by addition of acetonitrile/methanol mixture (2:1, v/v) containing dicofenac as internal standard. Samples were analyzed as previously described for samples from permeability assay. The in vitro half-life (t1/2) was calculated from the slope of the linear regression by plotting ln % remaining of parent compound against incubation time. In vitro intrinsic clearance, CLint was calculated from half-life using following Equation (3):(3) CLint [µL min^−1 mg^−1]=ln2/t1/2×mL per incubation/mg protein per incubation where 52.5 mg protein/g liver is used as a constant.
(§3) Predicted in vivo hepatic clearance, in vivo CLh was calculated as follows:(4) in vivo CLh [mL min^−1 kg^−1]=CLint×(mg protein/g liver)×Q×(LW/BW) /Q+(CLint×(mg protein/g liver)×(LW/BW)) where: LW/BW = liver weight/body weight [g kg^−1]; 25.7 (human), 87.5 (mouse); Q = LBF = liver blood flow [mL min^−1 kg^−1]; 21/1.26 (human), 131/7.86 (mouse).
(§4) Predicted in vivo hepatic clearance can be expressed as %LBF and calculated as follows:(5) in vivo CLh [%LBF]=in vivo CLh/LBF×100

[8] = Metabolic stability in human liver microsomes; assay type: in vitro ADME; conditions: for t1/2: 1 µM; for In Vivo CLh / In Vivo CLh (% LBF): human; for In Vivo CLh: predicted in vivo hepatic clearance; for In Vivo CLh (% LBF): predicted, % of liver blood flow
Description: as §2, §3, §4

[9] = Turbidimetric kinetic solubility assay; conditions: for Kinetic Solubility: PBS, 1% DMSO, 37 °C, 2 h, estimated range
Description: The turbidimetric solubility assay, which allows a rapid determination of the kinetic solubility of newly synthesized compounds using small amounts of their DMSO solutions, was used to assess the kinetic solubility [38].
The compounds’ DMSO stock solutions in concentration of 10 mM were serially diluted by factor 3.3×, 3×, 3.3× and 3× in DMSO. Prepared solutions were spiked into phosphate-buffered saline (PBS, 100 mM) to obtain final compounds’ concentrations of 100, 30, 10, 3 and 1 µM (3 µL of prepared dilutions were spiked to 297 µL of PBS, with final DMSO content of 1%, v/v). All compounds were tested in two replicas per concentration. Prepared solutions were incubated at 37 °C for 2 h with gentle shaking. Blank solutions were also prepared by spiking DMSO in PBS buffer (1% of DMSO, v/v). […] Compound/control samples are compared to the blank solution. […] Results were expressed as an estimated solubility range (lower and upper bound).

[10] = Chrom logD determination (fast-gradient HPLC); conditions: pH 7.4
Description: as §5, §6

SMILES | IC50 [1] [µM] | IC50 [2] [µM] | IC50 [3] [µM] | IC50 [4] [µM] | IC50 [5] [µM] | Chrom logD [6] | Permeability classification (MDCKII-hMDR1 cells) | Efflux Ratio (BA/AB) (MDCKII-hMDR1 cells) | Papp (AB) (MDCKII-hMDR1 cells) [×10⁻⁶ cm/s] | Papp (BA) (MDCKII-hMDR1 cells) [×10⁻⁶ cm/s] | t1/2 [7] [min] | In Vivo CLh [7] [mL/min/kg] | In Vivo CLh (% LBF) [7] [% LBF] | t1/2 ([8]; human liver microsomes) [min] | Metabolic stability classification ([8]; human liver microsomes, in words) | In Vivo CLh [8] [mL/min/kg] | In Vivo CLh (% LBF) [8] [% LBF] | Kinetic Solubility [9] [µM] | Solubility classification ([9]; kinetic solubility, in words) | Chrom logD [10]
CC([c-]1cccc1)n1cc(Cn2ccc3ccccc32)nn1.[Fe+2].c1cc[cH-]c1 (stereo not shown) [Compound 24b, 1-[1-(1-Ferrocenyl-1-methylmethyl-1,2,3-triazol-4-yl)methyl]-1H-indole] | > 100 | 87.6 ± 1.79 | > 100 | 89.6 ± 7.64 | > 100 | >6.57 |  |  |  |  |  |  |  |  |  |  |  |  |  | 
CC([c-]1cccc1)n1cc(Cn2cnc3ccccc32)nn1.[Fe+2].c1cc[cH-]c1 (stereo not shown) [Compound 23b, 1-[1-(1-Ferrocenyl-1-methylmethyl-1,2,3-triazol-4-yl)methyl]-1H-benzimidazole] | > 100 | 68 ± 13.7 | 83.6 ± 8.61 | 89.6 ± 13.7 | 31.8 ± 9.81 | 4.84 |  |  |  |  |  |  |  |  |  |  |  |  |  | 
Clc1ncnc2ncn(Cc3cn(C[c-]4cccc4)nn3)c12.[Fe+2].c1cc[cH-]c1 [Compound 15a, 6-Chloro-7-[1-(1-ferrocenymethyl-1,2,3-triazol-4-yl)methyl]-7H-purine] | 27.2 ± 5.3 | 34.4 ± 0.43 | 36 ± 1.81 | 28.6 ± 8.28 | 13.8 ± 4.17 |  | moderate AB permeability; also recorded: good permeability | 7.0 | 4.8 | 33.5 | 8.8 | 24.8 | 97 | 51.9 | moderate stability | 15.0 | 58 | >100 | high solubility | 3.82
Clc1ncnc2c1ccn2Cc1cn(C[c-]2cccc2)nn1.[Fe+2].c1cc[cH-]c1 [Compound 11a, 4-Chloro-7-[1-(1-ferrocenymethyl-1,2,3-triazol-4-yl)methyl]-7H-pyrrolo[2,3-d]pyrimidine] | 31.6 ± 0.84 | 32.9 ± 2.46 | 42 ± 5.93 | 38.2 ± 2.3 | 8.57 ± 1.95 |  | moderate to high AB permeability | 2.2 | 8.4 | 18 | 4.4 |  | 98 | 7.8 |  |  | 90 | <1 |  | 5.62
CC([c-]1cccc1)n1cc(Cn2ccc3c(Cl)ncnc32)nn1.[Fe+2].c1cc[cH-]c1 (stereo not shown) [Compound 11b, 4-Chloro-7-[1-(1-ferrocenyl-1-methylmethyl-1,2,3-triazol-4-yl)methyl]-7H-pyrrolo[2,3-d] pyrimidine] | 32 ± 0.34 | 31.3 ± 4.51 | 34.5 ± 1.36 | 31.4 ± 1.04 | 8.88 ± 3.46 |  | high permeability | 1.5 | 11.8 | 17.4 |  | 25.7 | 100 | 2.3 |  | 24.9 | 97 | 3 to 10 |  | 5.94
CC([c-]1cccc1)n1cc(Cn2cnc3c(Cl)ncnc32)nn1.[Fe+2].c1cc[cH-]c1 (stereo not shown) [Compound 13b, 6-Chloro-9-[1-(1-ferrocenyl-1-methylmethyl-1,2,3-triazol-4-yl)methyl]-9H-purine] | 36.6 ± 3.42 | 43.8 ± 10.9 | 38.8 ± 10.1 | 40.3 ± 4.52 | 6.79 ± 1.06 |  |  |  |  |  |  |  |  |  |  |  |  | 30 to 100 |  | 4.64
CC([c-]1cccc1)n1cc(Cn2cnc3c(N)ncnc32)nn1.[Fe+2].c1cc[cH-]c1 (stereo not shown) [Compound 12b, 6-Amino-9-[1-(1-ferrocenyl-1-methylmethyl-1,2,3-triazol-4-yl)methyl]-9H-purine] | 75 ± 8.93 | 70.2 ± 6.5 | 68.6 ± 9.15 | 76.4 ± 3.41 | 18.4 ± 2.64 |  |  |  |  |  |  |  |  |  |  |  |  | >100 |  | 3.09

— publication PMC7180452, “Purine and Purine Isostere Derivatives of Ferrocene: An Evaluation of ADME, Antitumor and Electrochemical Properties” (Molecules, 2020)
